One data set concerns jet lag mice. Kind of data set: Clock gene mRNA in liver of jet lag mice. It is filed as in vivo. Particulars: mice with disordered circadian rhythms. The method, then: (§1) RNA from liver, periodontal tissues and cell samples was prepared as previously described. Total RNA (1 ug) was synthesized into cDNA using […] (Vazyme). mRNA expression levels were normalized to GAPDH. Relative expression levels and enrichment contents were calculated using the comparative Ct Method. Primer information is detailed in Data file S1.
Male C57BL/6 mice,[40] 2 months old, were housed under disrupted conditions for 4 weeks. From the third week, they were intraperitoneally injected with Gala-SR, SR1078, or DMSO for 3 weeks. In the fifth week, general anesthesia was administered via intraperitoneal injection of pentobarbital sodium (40 mg/kg), and a ligature was placed around the cervix of the maxillary second molar to establish the murine periodontitis model. Collect gingival tissue and liver tissue every 6 h continuously for a duration of 48 h.

For a further data set, the system named is RORα. Kind of data set: G6Pase and Fgf21 mRNA in mouse liver after IP injection. It is filed as in vivo, mice. The following applies: 10 mg/kg IP, liver collected 24 h after injection. The method, then: as §1
The next data set concerns β-galactosidase. Kind of data set: Hydrolysis of Gala-SR by β-galactosidase (MS). It is filed as in vitro ADME. The following applies: mass spectrometry.
The next data set relates to RORα/γ. Kind of data set: PCR of RORα/γ downstream target genes G6Pase and FGF21 in HepG2 cells. It is filed as cell-based. How it is done:
Cells were seeded into 6-well plates, treated with the drug for 24 h, and total RNA samples were extracted using TRIzol reagent (Vazyme, China). The extraction of total RNA was performed according to the following steps: After removal of the supernatant, the cells were thoroughly washed three times with phosphate-buffered saline (PBS). Subsequently, the cells were lysed by the application of 1 mL TRIzol reagent. The resulting samples were harvested into frozen 2 mL Eppendorf microcentrifuge tubes and incubated at room temperature for 5 min. A volume of 0.2 mL of chloroform was added to the microcentrifuge tubes to ensure homogenization of the samples, which were then vortexed and incubated at room temperature for another 10 min. The samples were then centrifuged at a speed of 12 000 × g in a microcentrifuge at 4 °C for 15 min. The upper aqueous phase was subsequently collected and transferred to a new 2 mL microcentrifuge tube and mixed with an equal volume of isopropanol. The mixture was then centrifuged at a speed of 12 000 × g in a table microcentrifuge at 4 °C for 10 min. The resulting precipitates were washed once with 1 mL of 75% ethanol and once with 100% ethanol, followed by centrifugation at a speed of 7 500 × g in a table microcentrifuge for 5 min. Finally, the pellet was dissolved in RNase-free DEPC-treated water.
as §1

A short description of data set [1]: Toxicity and safety evaluation in vivo (blood biochemistry, histopathology). Particulars: mice, 10 mg/Kg. How it is done:
379 Figure S34. Exploration of the inhibitory effect of compound 9 on the targeting function of RORs. a.
380 Synthetic route of compound 9. b. Cytotoxicity assessment of compound 9 by CCK-8 assay. c.qPCR
381 analysis of downstream target genes (FGF21 and G6Pase) in compound 9-treated HepG2 cells(n=6).
382 d. Cotransfection of HEK293T cells with RORα or RORγ and reporters containing the FGF21 or
384 5μM each of Gala-SR and SR1078. (* represents the comparison with DMSO*P<0.05, n=4).
386 Figure S35. Impact of Gala-SR on circadian clock gene expression in periodontal ligament stem cells.
387 qPCR analysis of core clock genes at multiple time points in synchronized hPDLSCs treated with 5
391 Figure S36.Toxicity and safety evaluation in vivo.a. After intraperitoneal injection of Gala-SR and
392 SR1078 for 2 weeks, mouse serum was collected to measure […] (ALT, AST, CREA,
393 and BUN. ns, not significant) to assess the drugs' impact on liver function. b. HE staining was
394 performed on liver, kidney, and heart tissues from mice after 2 weeks of intraperitoneal injection with […]

Details of data set [2]: method as in PMID 20735016. The following applies: cited from earlier work.

Data on two compounds can be found in article PMC12575728, “Galactose-modified small molecule modulator targets RORα to enhance circadian rhythm and alleviate periodontitis-associated alveolar bone loss” (Bone Research, 2025).

With `O=C(Nc1ccc(C(OCO[C@@H]2O[C@H](CO)[C@H](O)[C@H](O)[C@H]2O)(C(F)(F)F)C(F)(F)F)cc1)c1ccc(C(F)(F)F)cc1` [Gala-SR], in the data set with jet lag mice, the “circadian rhythm of clock gene expression in liver tissue” value is listed as “effectively restored”. The “G6Pase and FGF21 expression in mice liver compared to SR1078” value in the data set with RORα is on record as “significantly upregulated”. Besides, the “hydrolysis upon addition of galactosidase (release of SR1078)” value in the data set on β-galactosidase was “hydrolysis of galactose on, Gala-SR occurred”. Besides, the “G6Pase and FGF21 expression, with galactosidase inhibitor” value in the data set with RORα/γ (HepG2, 5 μmol/L Gala-SR + β-galactosidase inhibitor, vs pure Gala-SR) is on record as “downregulated”. Further, the “G6Pase and FGF21 expression, with galactosidase” value in the data set with RORα/γ (HepG2, 5 μmol/L Gala-SR + β-galactosidase, vs pure Gala-SR) is listed as “significantly upregulated”. Further, the “G6Pase and FGF21 mRNA expression” value in the data set with RORα/γ (HepG2 cells, 5 μmol/L, 24 h, compared to SR1078) was “significant upregulation”. Further, the “histopathological examination of liver, kidney, and heart” value in data set [1] was “no discernible changes”.

`O=C(Nc1ccc(C(O)(C(F)(F)F)C(F)(F)F)cc1)c1ccc(C(F)(F)F)cc1` [SR1078, reference compound]: the “safe dose for in vitro experiments” value in data set [2] (in vitro) was 5 µmol/L. The “safe dose for animal studies” value in data set [2] (mice) is given as 10 mg/kg.
